Several values for one entry are separate records, joined by “and”; a condition that tells them apart may be missing. Identical values can stand only once.
What was measured:
[1] = target: T1, GPR139 (Gi3 activation) (Homo sapiens, UniProt Q6DWJ6); assay: BRET G protein activation (dissociation) assay, Gi3, HEK293A; type: cell-based; details: for Emax: HEK293-A, normalized to JNJ-63533054 (JNJ(S)); for EC50: Supplementary Table 6, read-out: pEC50 Gi3 (converted); for G protein activation, Gi3: individual replicates
T1 construct: expressed in transfected cells; host or cells: HEK293A (transient, Lipofectamine 2000)
T1 sequence (Q6DWJ6 1-353): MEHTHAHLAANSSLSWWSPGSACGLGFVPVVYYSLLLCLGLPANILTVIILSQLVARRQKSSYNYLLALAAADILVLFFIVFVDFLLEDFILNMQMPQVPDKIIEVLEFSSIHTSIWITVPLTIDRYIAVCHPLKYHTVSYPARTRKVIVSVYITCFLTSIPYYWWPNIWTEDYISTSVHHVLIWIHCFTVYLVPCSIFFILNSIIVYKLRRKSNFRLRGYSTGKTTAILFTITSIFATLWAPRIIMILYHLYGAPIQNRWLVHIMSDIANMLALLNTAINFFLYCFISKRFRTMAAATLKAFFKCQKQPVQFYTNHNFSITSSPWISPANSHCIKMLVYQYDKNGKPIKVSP
Protocol: (§1) Primary screening and pharmacological characterization of compounds were performed using a CHO-K1 cell line that stably expresses human GPR139 (GPR139-CHOk1). The GPR139-CHOk1 cell line was kindly provided by H. Lundbeck A/S, Denmark[24]. GPR139-CHOk1 cells were grown in Ham’s F-12 Kaighn’s Modification Medium (ThermoFisher #21127030) supplemented with 10% dialyzed fetal bovine serum (US origin, ThermoFisher #26400044), 100 units/mL Penicillin-Streptomycin (ThermoFisher #15140122), and 1 mg/mL Geneticin (ThermoFisher #11811031). […] M1R-CHOk1 cells were purchased from The Missouri S&T cDNA Resource Center (#CEM100TN00). M1R-CHOk1 cells were grown in Ham’s F12 Medium (ThermoFisher #21765029) supplemented with 10% fetal bovine serum (Brazilian origin, ThermoFisher #10270106), 100 units/mL Penicillin-Streptomycin, and 0.25 mg/mL Geneticin. HEK293A cells transiently transfected with GPR139 were used for additional pharmacological assessment of signaling pathways activated by GPR139. HEK239A cells were generously provided by Dr. Asuka Inoue, Tohoku University, Japan. HEK293A cells were grown in Dulbecco’s Modified Eagle Medium (ThermoFisher #31966047) supplemented with 10% dialyzed fetal bovine serum and 100 units/mL Penicillin-Streptomycin. Cell lines were maintained at 37 °C in humidified incubator equilibrated with 5% CO2.
(§2) The G protein dissociation assay developed by the lab of Kirill A. Martemyanov was used to measure the coupling of multiple G proteins by GPR139[57]. The assay was performed as described previously with minor modifications. HEK293A cells were reverse transfected 20–24 h prior to assay. 50,000 cells were plated in each well of white opaque tissue culture treated 96-well plates (PerkinElmer #6005680) previously coated with poly-D-lysine. Transfection solutions were prepared as described, and 10 µL transfection solution was mixed with 100 µL cells in each well. The cells in each well were transfected with 18.9 ng GPR139, 6.3 ng Venus 1-155 Gγ2, 6.3 ng Venus 159-239 Gβ1, 6.3 ng masGRK3ct-NanoLuc and 12.6 ng Gαi2, 12.6 ng Gαi3, 12.6 ng GαoA, 12.6 ng Gαq or 25.2 ng Gα12 using 375 nL Lipofectamine 2000 Transfection Reagent. Transfections with Gαq and Gα12 contained 6.3 ng DNA of the active subunit S1 of pertussis toxin (PTX-S1). Each transfection was normalized to 150 ng total DNA with pcDNA3.1. The BRET biosensors were a kind gift from the Martemyanov lab. On the day of the experiment the cells were washed with HEPES buffer. Test compounds were diluted in HEPES buffer from DMSO stocks (final DMSO concentration of maximally 0.3%). NanoLuc Luciferase substrate NanoGlo—furimazine (Promega #N1120) was diluted 1000-fold (final) in HEPES buffer. NanoGlo and test compounds were added, and measurements were performed after 10 s for Gi3, 15 s for Gi2 and GoA, 20 s for Gq, and 90 s for G12—the timepoint where maximal signal occurred with each G protein, ensuring proper determination of the potency for the G protein coupling. Simultaneous dual emission was measured at 535 nm and 475 nm on LUMIstar Omega Microplate Reader (BMG Labtech) at room temperature. The BRET ratio of 535 nm/475 nm (Venus/NanoLuc), reflecting the dissociation of the G protein heterotrimer, was used to determine the G protein activation. The basal BRET ratio obtained with buffer condition was subtracted from the absolute BRET ratio at a given test compound concentration, and the responses were normalized to the one obtained with 10 µM JNJ-63533054 for the activation of Gi2.
(§3) Pharmacological data and statistical analyses were performed in GraphPad Prism v9–10 (Graphpad Software Inc., San Diego, CA), which are also specifically described in the figure and table legends. […]

[2] = target: T2, GPR139 (Gq activation) (Homo sapiens, UniProt Q6DWJ6); assay: BRET G protein activation (dissociation) assay, Gq, HEK293A; type: cell-based; details: for Emax: HEK293-A, normalized to JNJ-63533054 (JNJ(S)); for EC50: Supplementary Table 6; for G protein activation, Gq: individual replicates
T2 construct: expressed in transfected cells; host or cells: HEK293A (transient, Lipofectamine 2000)
T2 sequence (Q6DWJ6 1-353): T1 sequence (Q6DWJ6 1-353)
Protocol: as §1, §2, §3

[3] = log [compound] M -4.5, listed as JNJ (S)
[4] = log [compound] M -5.0, listed as JNJ (S)
[5] = log [compound] M -5.5, listed as JNJ (S)
[6] = log [compound] M -6.0, listed as JNJ (S)
[7] = log [compound] M -6.5, listed as JNJ (S)
[8] = log [compound] M -7.0, listed as JNJ (S)
[9] = log [compound] M -7.5, listed as JNJ (S)
[10] = log [compound] M -8.0, listed as JNJ (S)

For C[C@@H](NC(=O)CNC(=O)c1cccc(Cl)c1)c1ccccc1 [JNJ(R), reference compound], the Emax [1] was 35 ± 6%, the EC50 [1] was 3.98 µM and the “G protein activation, Gi3” value ([1]; log [compound] M -4.5) was 36 % of JNJ-63533054 at Gi2 and 21 % of JNJ-63533054 at Gi2 and 35 % of JNJ-63533054 at Gi2. For the same molecule, the “G protein activation, Gi3” value ([1]; log [compound] M -5.0) was 29 % of JNJ-63533054 at Gi2 and 16 % of JNJ-63533054 at Gi2 and 28 % of JNJ-63533054 at Gi2, the “G protein activation, Gi3” value ([1]; log [compound] M -5.5) was 20 % of JNJ-63533054 at Gi2 and 7 % of JNJ-63533054 at Gi2 and 23 % of JNJ-63533054 at Gi2 and the “G protein activation, Gi3” value ([1]; log [compound] M -6.0) was 11 % of JNJ-63533054 at Gi2 (2×) and 4 % of JNJ-63533054 at Gi2. For the same molecule, the “G protein activation, Gi3” value ([1]; log [compound] M -6.5) was 5.48 % of JNJ-63533054 at Gi2 and -1.21 % of JNJ-63533054 at Gi2 and 3.19 % of JNJ-63533054 at Gi2, the “G protein activation, Gi3” value ([1]; log [compound] M -7.0) was 3.32 % of JNJ-63533054 at Gi2 and -6 % of JNJ-63533054 at Gi2 and 6 % of JNJ-63533054 at Gi2 and the “G protein activation, Gi3” value ([1]; log [compound] M -7.5) was 3 % of JNJ-63533054 at Gi2 and -5 % of JNJ-63533054 at Gi2 and 7.51 % of JNJ-63533054 at Gi2. For the same molecule, the “G protein activation, Gi3” value ([1]; log [compound] M -8.0) was -1 % of JNJ-63533054 at Gi2 and -3.25 % of JNJ-63533054 at Gi2 and 5 % of JNJ-63533054 at Gi2, the Emax [2] was 22 ± 8% and the EC50 [2] was 10 µM. For the same molecule, the “G protein activation, Gq” value ([2]; log [compound] M -4.5) was 17 % of JNJ-63533054 at Gi2 and 24 % of JNJ-63533054 at Gi2 and 7.59 % of JNJ-63533054 at Gi2, the “G protein activation, Gq” value ([2]; log [compound] M -5.0) was 12 % of JNJ-63533054 at Gi2 and 15 % of JNJ-63533054 at Gi2 and 4 % of JNJ-63533054 at Gi2 and the “G protein activation, Gq” value ([2]; log [compound] M -5.5) was 8 % of JNJ-63533054 at Gi2 and 7 % of JNJ-63533054 at Gi2 and -2.15 % of JNJ-63533054 at Gi2. The “G protein activation, Gq” value ([2]; log [compound] M -6.0) was 6.62 % of JNJ-63533054 at Gi2 and 3 % of JNJ-63533054 at Gi2 and -1.3 % of JNJ-63533054 at Gi2, the “G protein activation, Gq” value ([2]; log [compound] M -6.5) was 3.64 % of JNJ-63533054 at Gi2 and 0.578 % of JNJ-63533054 at Gi2 and -0.535 % of JNJ-63533054 at Gi2 and the “G protein activation, Gq” value ([2]; log [compound] M -7.0) was 0.442 % of JNJ-63533054 at Gi2 and -1.25 % of JNJ-63533054 at Gi2 and -2 % of JNJ-63533054 at Gi2. For the same molecule, the “G protein activation, Gq” value ([2]; log [compound] M -7.5) was 0.442 % of JNJ-63533054 at Gi2 and 0.122 % of JNJ-63533054 at Gi2 and 2.16 % of JNJ-63533054 at Gi2 and the “G protein activation, Gq” value ([2]; log [compound] M -8.0) was -2 % of JNJ-63533054 at Gi2 and -0.213 % of JNJ-63533054 at Gi2 and 1.37 % of JNJ-63533054 at Gi2.

For CC(NC(=O)CNC(=O)c1cccc(Cl)c1)c1ccccc1 (stereo not shown) [JNJ-63533054, reference compound], the Emax [1] was 56 ± 4%, the EC50 [1] was 0.1 µM and the “G protein activation, Gi3” value [1, 3] was 63 % of JNJ-63533054 at Gi2 and 48 % of JNJ-63533054 at Gi2 and 54 % of JNJ-63533054 at Gi2. For the same molecule, the “G protein activation, Gi3” value [1, 4] was 59 % of JNJ-63533054 at Gi2 and 44 % of JNJ-63533054 at Gi2 and 57 % of JNJ-63533054 at Gi2, the “G protein activation, Gi3” value [1, 5] was 57 % of JNJ-63533054 at Gi2 and 41 % of JNJ-63533054 at Gi2 and 51 % of JNJ-63533054 at Gi2 and the “G protein activation, Gi3” value [1, 6] was 52 % of JNJ-63533054 at Gi2 and 39 % of JNJ-63533054 at Gi2 and 42 % of JNJ-63533054 at Gi2. The “G protein activation, Gi3” value [1, 7] was 48 % of JNJ-63533054 at Gi2 and 28 % of JNJ-63533054 at Gi2 and 40 % of JNJ-63533054 at Gi2, the “G protein activation, Gi3” value [1, 8] was 37 % of JNJ-63533054 at Gi2 and 22 % of JNJ-63533054 at Gi2 and 29 % of JNJ-63533054 at Gi2 and the “G protein activation, Gi3” value [1, 9] was 26 % of JNJ-63533054 at Gi2 and 11 % of JNJ-63533054 at Gi2 and 24 % of JNJ-63533054 at Gi2. For the same molecule, the “G protein activation, Gi3” value [1, 10] was 10 % of JNJ-63533054 at Gi2 and 5.6 % of JNJ-63533054 at Gi2 and 14 % of JNJ-63533054 at Gi2, the Emax [2] was 42 ± 3% and the EC50 [2] was 0.158 µM. The “G protein activation, Gq” value [2, 3] was 40 % of JNJ-63533054 at Gi2 and 47 % of JNJ-63533054 at Gi2 and 36 % of JNJ-63533054 at Gi2, the “G protein activation, Gq” value [2, 4] was 40 % of JNJ-63533054 at Gi2 and 47 % of JNJ-63533054 at Gi2 and 39 % of JNJ-63533054 at Gi2 and the “G protein activation, Gq” value [2, 5] was 42 % of JNJ-63533054 at Gi2 and 44 % of JNJ-63533054 at Gi2 and 32 % of JNJ-63533054 at Gi2. For the same molecule, the “G protein activation, Gq” value [2, 6] was 39 % of JNJ-63533054 at Gi2 and 42 % of JNJ-63533054 at Gi2 and 31 % of JNJ-63533054 at Gi2, the “G protein activation, Gq” value [2, 7] was 29 % of JNJ-63533054 at Gi2 and 32 % of JNJ-63533054 at Gi2 and 23 % of JNJ-63533054 at Gi2 and the “G protein activation, Gq” value [2, 8] was 17 % of JNJ-63533054 at Gi2 (2×) and 9 % of JNJ-63533054 at Gi2. The “G protein activation, Gq” value [2, 9] was 5.47 % of JNJ-63533054 at Gi2 and 7 % of JNJ-63533054 at Gi2 and 1.27 % of JNJ-63533054 at Gi2 and the “G protein activation, Gq” value [2, 10] was 1.82 % of JNJ-63533054 at Gi2 and 0.745 % of JNJ-63533054 at Gi2 and -0.2 % of JNJ-63533054 at Gi2.

Source: paper PMC12775434, “Ultra-large virtual screening unveils potent agonists of the neuromodulatory orphan receptor GPR139” (Nature Communications, 2025)
